63 sequences from the OligoGym collection can be followed below.

Several values for one entry are separate records, joined by “and”; a condition that tells them apart may be missing. Equal entries are not always repeated. After the bases stand the sugars from the 5' end (letter, count) and the backbone: PS all phosphorothioate, else s phosphorothioate and o phosphodiester by linkage. Methylation of C is not given here. e = 2'-O-(2-methoxyethyl) (MOE); k = constrained ethyl (cEt); d = 2'-deoxy (DNA)

The target in this series is APOL1. The conditions noted are these: ASO.

For the sequence “TGAGTATTGTTTTTGT (sugars k3 d4 k3 e1 d5, PS)”, the target mRNA inhibition is 43% (A431, 0.0156 µM); 69% (A431, 0.0625 µM); 88% (A431, 0.25 µM); 94% (A431, 1 µM); 95% (A431, 2 µM).

On to “TTTTGTAAGTGCAACC (sugars kkkddddkekeddddd, PS)”, for which the target mRNA inhibition was 21% (A431, 0.0156 µM); 67% (A431, 0.0625 µM); 89% (A431, 0.25 µM); 97% (A431, 1 µM); 98% (A431, 2 µM).

Regarding “GTTCAAAAGCAGCATT (sugars k3 d5 k3 d5, PS)”, the target mRNA inhibition (A431, 2 µM) amounted to 90%.

The sequence “AAGTATTGCCAGCTAA (sugars kkddddkekekddddd, PS)” had a target mRNA inhibition (A431, 2 µM) of 62%.

With “GTTATGAAATTATTGG (sugars k3 d4 k3 e1 d5, PS)”, the target mRNA inhibition is, setting by setting: (A431, 0.0156 µM) 21%; (A431, 0.0625 µM) 56%; (A431, 0.25 µM) 85%; (A431, 1 µM) 93%; (A431, 2 µM) 96%.

As to TGTGTTTAGGCATTCA (sugars k4 d9 k3, PS), the target mRNA inhibition (A431, 0.25 µM) is 61% and 86%; the target mRNA inhibition (A431, 1 µM) is 65% and 86%.

“TTCAGAATTTCCACTA (sugars kddddkekekeddddd, PS)”: for the setting “A431, 2 µM”, the target mRNA inhibition is 62%.

“GAAGATTGGCTCTGGC (sugars kkdddddkekeddddd, PS)” displayed a target mRNA inhibition (A431, 2 µM) of 70%.

Consider “ATTCTATTAGAGGGCT (sugars kdddddkekekddddd, PS)”, for which the target mRNA inhibition (A431, 2 µM) was found to be 45%.

As to “CGTCAATATATTCTTT (sugars kkddddkekekkdddd, PS)”, the target mRNA inhibition reads like this: (A431, 0.0156 µM) 3%; (A431, 0.0625 µM) 36%; (A431, 0.25 µM) 70%; (A431, 1 µM) 88%; (A431, 2 µM) 95%.

For “GTTATATTTGATCCTC (sugars kkkddddkekeddddd, PS)”, the target mRNA inhibition was found to be 32% (A431, 0.0156 µM); 65% (A431, 0.0625 µM); 88% (A431, 0.25 µM); 96% (A431, 1 µM); 98% (A431, 2 µM).

For GTTCAAAAGCAGCATT (sugars k4 d9 k3, PS), for the setting “A431, 0.04 µM”, the target mRNA inhibition is 15% and 11%.

For the sequence TCCTTATGCTTACTCC (sugars k4 d9 k3, PS), the target mRNA inhibition reads like this: (A431, 0.0625 µM) 50%; (A431, 0.25 µM) 80%; (A431, 1 µM) 93%.

The sequence “ATTCAGAATTTCCACT (sugars k2 d4 e3 k2 d5, PS)” displayed a target mRNA inhibition (A431, 2 µM) of 77%.

On to CAGTTCCCATTTTTCC (sugars k4 d9 k3, PS), for which the target mRNA inhibition amounted to 62% (A431, 0.0625 µM); 83% (A431, 0.25 µM); 94% (A431, 1 µM).

For the sequence “ATTTCTTGATGTGGTG (sugars kkddddkekekkdddd, PS)”, where the note is “A431, 2 µM”, the target mRNA inhibition is 69%.

For the sequence CAAGGTTGTCCAGAGC (sugars k4 d9 k3, PS), the target mRNA inhibition by setting is: (A431, 0.0625 µM) 31%; (A431, 0.25 µM) 58%; (A431, 1 µM) 64%.

As to “TGTAAGTGCAACCAAT (sugars kddddkekekeddddd, PS)”, under “A431, 2 µM”, the target mRNA inhibition was found to be 67%.

“GTATTTCTTGATGTGG (sugars kkkddddkekekdddd, PS)” yielded a target mRNA inhibition (A431, 2 µM) of 73%.

As to “ATGCTAATTTTCTGAC (sugars kkddddkekekddddd, PS)”, the target mRNA inhibition is 25% (A431, 0.0156 µM); 59% (A431, 0.0625 µM); 84% (A431, 0.25 µM); 93% (A431, 1 µM); 97% (A431, 2 µM).

Turning to “AACGCAATGCTGACTT (sugars k3 d4 k3 e1 d5, PS)”, the target mRNA inhibition is, setting by setting: (A431, 0.0156 µM) 3%; (A431, 0.0625 µM) 24%; (A431, 0.25 µM) 54%; (A431, 1 µM) 80%; (A431, 2 µM) 91%.

On to “ATTCTCATGGTACAGG (sugars k2 d4 e3 k2 d5, PS)”, for which the target mRNA inhibition is, setting by setting: (A431, 0.0156 µM) 13%; (A431, 0.0625 µM) 34%; (A431, 0.25 µM) 72%; (A431, 1 µM) 90%; (A431, 2 µM) 92%.

As for CGATTGTCTTGTTTTT (sugars k4 d9 k3, PS), the target mRNA inhibition is, setting by setting: (A431, 0.0625 µM) 70% and 79%; (A431, 0.25 µM) 90% and 88%; (A431, 1 µM) 97% and 94%.

Where the note is “A431, 2 µM”, “ATTCTCATGGTACAGG (sugars kkkddddkdkdkdddd, PS)” came in with a target mRNA inhibition of 81%.

“ATTCTATTAGAGGGCT (sugars k2 d4 e3 k2 d5, PS)” displayed a target mRNA inhibition (A431, 2 µM) of 70%.

Sequence “CATTCAGAATTTCCAC (sugars k3 d5 k3 d5, PS)” gave a target mRNA inhibition (A431, 2 µM) of 94%.

Sequence “AAGTATTGCCAGCTAA (sugars kkddddkdkdkddddd, PS)” yielded a target mRNA inhibition (A431, 2 µM) of 70%.

For the sequence CCCCTGCCAGGCATAT (sugars k4 d9 k3, PS), the target mRNA inhibition was determined as 22% (A431, 0.0625 µM); 42% (A431, 0.25 µM); 44% (A431, 1 µM).

In the case of “GAAGATTGGCTCTGGC (sugars kdddddkekekddddd, PS)”, the target mRNA inhibition (A431, 2 µM) is 44%.

In turn, “AGTATTGTTTTTGTGG (sugars kkkddddkekekdddd, PS)” came in with a target mRNA inhibition (A431, 2 µM) of 55%.

“ATTCTCATGGTACAGG (sugars kdddddkekekddddd, PS)”: the target mRNA inhibition (A431, 2 µM) came to 83%.

Sequence “ATTCAGAATTTCCACT (sugars kkddddekekeddddd, PS)” showed a target mRNA inhibition (A431, 2 µM) of 87%.

Consider “GTTCTAACTCTTGGGC (sugars kkkddddkekekdddd, PS)”, for which the target mRNA inhibition (A431, 2 µM) amounted to 37%.

The sequence TGGTTCAAAAGCAGCA (sugars k4 d9 k3, PS) came in with a target mRNA inhibition (A431, 0.0625 µM) of 60%; a target mRNA inhibition (A431, 0.25 µM) of 84%; a target mRNA inhibition (A431, 1 µM) of 94%.

The sequence “GAGTATTGTTTTTGTG (sugars kddddkekekeddddd, PS)” registered a target mRNA inhibition (A431, 2 µM) of 94%.

With “CATTCAGAATTTCCAC (sugars kkkddddkekekdddd, PS)”, the target mRNA inhibition (A431, 2 µM) came out at 65%.

As for “GAAGATTGGCTCTGGC (sugars kkddddkdkdkddddd, PS)”, the target mRNA inhibition (A431, 2 µM) came out at 79%.

For the sequence “TTTATACCAGTGTCTT (sugars kkddddkekekkdddd, PS)”, under “A431, 2 µM”, the target mRNA inhibition was found to be 51%.

Take “GTTCAAAAGCAGCATT (sugars kkddddekekeddddd, PS)”: the target mRNA inhibition (A431, 2 µM) is 82%.

Under “A431, 2 µM”, “GAATTATGGAATTGCA (sugars k2 d4 e3 k2 d5, PS)” displayed a target mRNA inhibition of 94%.

For “CTAATTTTCTGACTGT (sugars k3 d4 k3 e1 d5, PS)”, the target mRNA inhibition was 35% (A431, 0.0156 µM); 59% (A431, 0.04 µM); 69% (A431, 0.0625 µM); 88% (A431, 0.25 µM); 99% and 96% (A431, 1 µM); 99% (A431, 2 µM).

Under “A431, 2 µM”, “ATCAGATGGGTACTTC (sugars kkddddkekekddddd, PS)” gave a target mRNA inhibition of 66%.

Regarding “ATTCTATTAGAGGGCT (sugars kkddddkekekkdddd, PS)”, the target mRNA inhibition (A431, 2 µM) turned out to be 34%.

“CGTGTTATATTTGATC (sugars kkddddkekekddddd, PS)”: the target mRNA inhibition (A431, 2 µM) is 88%.

Regarding “TATCAGATGGGTACTT (sugars k3 d4 k3 e1 d5, PS)”, under “A431, 2 µM”, the target mRNA inhibition is 69%.

In turn, “CTGTTCTAACTCTTGG (sugars k2 d4 e3 k2 d5, PS)” returned a target mRNA inhibition (A431, 2 µM) of 93%.

In the case of “AGTTTTGTAAGTGCAA (sugars kkddddkekekkdddd, PS)”, for the setting “A431, 2 µM”, the target mRNA inhibition came to 84%.

For “ACGCAATGCTGACTTG (sugars k3 d5 k3 d5, PS)”, the target mRNA inhibition (A431, 0.0625 µM) stood at 54%; the target mRNA inhibition (A431, 0.25 µM) came out at 83%; the target mRNA inhibition (A431, 1 µM) is 94%; the target mRNA inhibition (A431, 2 µM) amounted to 94%.

“AATTCTATTAGAGGGC (sugars kkkddddkekeddddd, PS)” registered a target mRNA inhibition (A431, 2 µM) of 82%.

Under “A431, 2 µM”, “CGTCAATATATTCTTT (sugars k2 d4 e3 k2 d5, PS)” returned a target mRNA inhibition of 81%.

On to “GGAATTATGGAATTGC (sugars k2 d4 e3 k2 d5, PS)”, for which the target mRNA inhibition runs as follows: (A431, 0.0156 µM) 8%; (A431, 0.0625 µM) 38%; (A431, 0.25 µM) 84%; (A431, 1 µM) 96%; (A431, 2 µM) 99%.

As for “CGCAATGCTGACTTGG (sugars k2 d4 e4 k2 d4, PS)”, for the setting “A431, 2 µM”, the target mRNA inhibition came to 68%.

As for “GGAATTATGGAATTGC (sugars kkdddddkekeddddd, PS)”, where the note is “A431, 2 µM”, the target mRNA inhibition was found to be 40%.

In the case of “CAGTTTTGTAAGTGCA (sugars kkddddkekekddddd, PS)”, the target mRNA inhibition (A431, 2 µM) amounted to 91%.

In the case of ATTCTGTGTGCTCACT (sugars k4 d9 k3, PS), the target mRNA inhibition stood at 65% (A431, 0.0625 µM); 80% (A431, 0.25 µM); 92% (A431, 1 µM).

TTTAGAAAGGACACGG (sugars k4 d9 k3, PS): the target mRNA inhibition was found to be 42% (A431, 0.0625 µM); 73% (A431, 0.25 µM); 90% (A431, 1 µM).

“ATTCAGAATTTCCACT (sugars kkdddddkekeddddd, PS)” displayed a target mRNA inhibition (A431, 2 µM) of 88%.

Turning to TGGAAATGCCAAAGTC (sugars k4 d9 k3, PS), the target mRNA inhibition was determined as 62% (A431, 0.0625 µM); 88% (A431, 0.25 µM); 96% (A431, 1 µM).

As for “ACACATCATTGGGTTA (sugars k3 d4 k3 e1 d5, PS)”, the target mRNA inhibition (A431, 2 µM) came out at 59%.

Under “A431, 2 µM”, “AGATTGGCTCTGGCTC (sugars kdddddkekekddddd, PS)” registered a target mRNA inhibition of 40%.

For the sequence “GCTTTAAACTCAGGTG (sugars kddddkekekeddddd, PS)”, the target mRNA inhibition (A431, 2 µM) worked out at 67%.

For “GAGTATTGTTTTTGTG (sugars k2 d4 e3 k2 d5, PS)”, the target mRNA inhibition is, setting by setting: (A431, 0.0156 µM) 38%; (A431, 0.0625 µM) 72%; (A431, 0.25 µM) 91%; (A431, 1 µM) 96%; (A431, 2 µM) 97%.

Regarding “GTGAGTATTGTTTTTG (sugars kkddddkekekddddd, PS)”, where the note is “A431, 2 µM”, the target mRNA inhibition turned out to be 88%.
